Molecular target: CB1-receptor (UniProt P20272)
Assay: binding of the pyrazoline compounds to CB1-receptors (Pharmacological Methods, Part I)
Set-up: other: 10^−7 M; other: 10^−8 M; species or system human or rat
Procedure: I. In-vitro Determination of Affinity to CB1/CB2-Receptors
The in-vitro determination of the affinity of the inventive 4-substituted pyrazoline compounds to CB1/CB2-Rezeptors is carried out as described in the publication of Ruth A. Ross, Heather C. Brockie et al., “Agonist-inverse agonist characterisation at CB1 and CB2 cannabinoid receptors of L-759633, L759656 and AM630”, British Journal of Pharmacology, 126, 665-672, (1999), whereby the transfected human CB1 and CB2 receptors of Receptor Biology, Inc. are used. The radioligand used for both receptors is [^3H]-CP55940. The respective parts of the description is hereby incorporated by reference and forms part of the present disclosure.
Rat Cerebellum CB1 Binding
Binding affinity to CB1 receptor was evaluated according to a modification of the method described by Govaerts et al., Eur J Pharmac Sci 23, 233-243 (2004). The respective parts of the description is hereby incorporated by reference and forms part of the present disclosure.
Briefly, cerebellum from male wistar rats (250-300 g) were carefully dissected on ice and homogenates were prepared with Potter-Helveheim in a cold 50 mM Tris-HCl solution containing 5 mM MgCl2, 1 mM EDTA and 0.25 M sucrose, pH 7.4. The suspension was centrifuged at […] for 5 minutes. The supernatants were collected and centrifuged 50,000×g for 15 minutes. The resulting pellets were then resuspended in Tris-HCl buffer without sucrose, homogenized and incubated for 15 min at 37° C. in an orbital shaker bath and centrifuged again at 50,000×g for 15 min. Pellets were weighted, resuspended in Tris-HCl buffer without sucrose, homogenized with Ultraturrax at 13,500 rpm for 3×5 seconds and alicuoted in 0.9 ml volumes in Eppendorf tubes. Alicuotes were centrifuged at 20,800×g for 5 minutes, supernatants discarded and pellets were frozen at −80° C. until use. Total protein concentration was determined using the Bio-Rad Lowry method based kit. Competitive binding experiments were performed in presence of 1 nM [^3H]-CP 55,940 in siliconized glass tubes containing 100 μg protein/tube resuspended in 1 ml final volume of 50 mM Tris-HCl, 5 mM MgCl2, 1 mM EDTA, 0.5% (w/v) bovine serum albumin, pH 7.4. Compounds were present at various concentrations and the non specific binding was determined in the presence of 10 μM HU-210. After 1 hour incubation at 30° C., the suspension was rapidly filtered through 0.5% PEI pre-treated GF/B fiber filters on a 96-well harvester and washed 3 times with 3 ml ice-cold binding buffer without bovine serum albumin. Radioactivity on filters was measured with Wallac Winspectral 1414 counter by liquid scintillation in 6 ml Ecoscint H (National Diagnostics, U.K.). Assays were made in triplicates.
Binding data were analyzed by non-linear regression with the software GraphPad Prism Version 3.03.
The binding of the pyrazoline compounds of general formula I to CB1-receptors was determined according to the method described in the section Pharmacological Methods, Part I.

Compound	Inhibition (10^−7 M) [%]	Inhibition (10^−8 M, in %)
C[C@@H]1C(C(=O)NN2Cc3cccc4cccc(c34)C2)=NN(c2ccc(Cl)cc2Cl)[C@@H]1c1ccc(Cl)cc1 (relative stereo) [Example 105, cis-5-(4-Chlorophenyl)-1-(2,4-dichlorophenyl)-4-methyl-4,5-dihydro-1H-pyrazole-3-carboxylic acid (1H,3H-benzo[de]isoquinolin-2-yl)-amide]	31.4	35.9
CC[C@@H]1C(C(=O)NN2CCCCC2)=NN(c2ccc(Cl)cc2Cl)[C@@H]1c1ccc(Br)cc1.Cl (relative stereo) [Example 428, cis-5-(4-bromophenyl)-1-(2,4-dichlorophenyl)-4-ethyl-N-(piperidin-1-yl)-4,5-dihydro-1H-pyrazole-3-carboxamide hydrochloride]	42.6	28.4
C[C@@H]1C(C(=O)NCC2CCCCC2)=NN(c2ccc(Cl)cc2Cl)[C@@H]1c1ccc(Cl)cc1 (relative stereo) [Example 114, cis-5-(4-chlorophenyl)-N-(cyclohexylmethyl)-1-(2,4-dichlorophenyl)-4-methyl-4,5-dihydro-1H-pyrazole-3-carboxamide]	28.3	−13
CCOC(=O)C1=NN(c2ccc(Cl)cc2Cl)[C@@H](c2ccccc2)[C@@H]1C (relative stereo) [Example 421, trans-ethyl 1-(2,4-dichlorophenyl)-4-methyl-5-phenyl-4,5-dihydro-1H-pyrazole-3-carboxylate]	31.2	38
C[C@@H]1C(C(=O)O)=NN(c2ccccc2Cl)[C@@H]1c1ccc(Cl)s1 (relative stereo) [Example 363, cis-1-(2-chlorophenyl)-5-(5-chlorothiophen-2-yl)-4-methyl-4,5-dihydro-1H-pyrazole-3-carboxylic acid]	11.3	12.2
C[C@H]1C(C(=O)NN2CCCC2)=NN(c2ccc(Cl)cc2Cl)[C@H]1c1ccc(Cl)cc1 (relative stereo) [Example 7, cis-5-(4-Chloro-phenyl)-1-(2,4-dichloro-phenyl)-4-methyl-4,5-dihydro-1H-pyrazole-3-carboxylic acid pyrrolidin-1-ylamide]	41	20.7
C[C@@H]1C(C(=O)NN2CCCCCC2)=NN(c2ccc(Cl)cc2Cl)[C@@H]1c1ccc(F)cc1 (stereo in doubt) [Example 414, cis-N-(azepan-1-yl)-1-(2,4-dichlorophenyl)-5-(4-fluorophenyl)-4-methyl-4,5-dihydro-1H-pyrazole-3-carboxamide]	36.2	28.7
C[C@@H]1C(C(=O)NN2C(=O)c3cccc4cccc(c34)C2=O)=NN(c2ccc(Cl)cc2Cl)[C@@H]1c1ccc(Cl)cc1 (relative stereo) [Example 104, cis-5-(4-Chlorophenyl)-1-(2,4-dichlorophenyl)-4-methyl-4,5-dihydro-1H-pyrazole-3-carboxylic acid (1,3-dioxo-1H,3H-benzo[de]isoquinolin-2-yl)-amide]	31.7	−0.4
CC[C@H]1C(C(=O)O)=NN(c2ccc(Cl)cc2Cl)[C@H]1c1ccc(Cl)cc1 (racemic) [Example 21, cis-5-(4-Chloro-phenyl)-1-(2,4-dichloro-phenyl)-4-ethyl-4,5-dihydro-1H-pyrazole-3-carboxylic acid]	23	11
C[C@H]1C(C(=O)NN2CC3CCCC3C2)=NN(c2ccc(Cl)cc2Cl)[C@H]1c1ccc(F)cc1.Cl (relative stereo) [Example 233, cis-1-(2,4-dichlorophenyl)-5-(4-fluorophenyl)-N-(hexahydrocyclopenta[c]pyrrol-2(1H)-yl)-4-methyl-4,5-dihydro-1H-pyrazole-3-carboxamide hydrochloride]	43.9	27.9
COC[C@H]1CCCN1NC(=O)C1=NN(c2ccc(Cl)cc2Cl)[C@H](c2ccc(Cl)cc2)[C@@H]1C.Cl (mixture of isomers) [Example 106, cis-5-(4-chlorophenyl)-1-(2,4-dichlorophenyl)-N-((R)-2-(methoxymethyl)pyrrolidin-1-yl)-4-methyl-4,5-dihydro-1H-pyrazole-3-carboxamide hydrochloride]	39	20.4
COc1ccc([C@@H]2[C@H](C)C(C(=O)N[C@H]3CCCC[C@@H]3O)=NN2c2ccc(Cl)cc2Cl)cc1 (mixture of isomers) [Example 281, (+)-cis-1-(2,4-dichlorophenyl)-N-((1S,2S)-2-hydroxycyclohexyl)-5-(4-methoxyphenyl)-4-methyl-4,5-dihydro-1H-pyrazole-3-carboxamide]	39.0	10.2
C[C@@H]1C(C(=O)NN2CCc3ccccc32)=NN(c2ccc(Cl)cc2Cl)[C@@H]1c1ccc(Br)cc1 (relative stereo) [Example 415, cis-5-(4-bromophenyl)-1-(2,4-dichlorophenyl)-N-(indolin-1-yl)-4-methyl-4,5-dihydro-1H-pyrazole-3-carboxamide]	79.3	32.3
C[C@H]1C(C(=O)O)=NN(c2ccc(Cl)cc2Cl)[C@H]1c1ccc(Br)cc1 (relative stereo) [Example 413, cis-5-(4-bromophenyl)-1-(2,4-dichlorophenyl)-4-methyl-4,5-dihydro-1H-pyrazole-3-carboxylic acid]	17.3	13.8
C[C@H]1C(C(=O)O)=NN(c2ccc(Cl)cc2Cl)[C@H]1c1cccs1 (racemic) [Example 367, cis-1-(2,4-dichlorophenyl)-4-methyl-5-(thiophen-2-yl)-4,5-dihydro-1H-pyrazole-3-carboxylic acid]	11	7.2
C[C@@H]1C(C(=O)NN2CCCCC2)=NN(c2ccc(Cl)cc2Cl)[C@H]1c1ccc(O)cc1 (relative stereo) [Example 344, trans-1-(2,4-dichlorophenyl)-5-(4-hydroxyphenyl)-4-methyl-N-(piperidin-1-yl)-4,5-dihydro-1H-pyrazole-3-carboxamide]	−23.3	−27.3
C[C@@H]1C(C(=O)NN2CCCCC2)=NN(c2ccc(Cl)cc2Cl)[C@@H]1c1ccc(Cl)cc1 [Example 420, (+)-cis-5-(4-chlorophenyl)-1-(2,4-dichlorophenyl)-4-methyl-N-(piperidin-1-yl)-4,5-dihydro-1H-pyrazole-3-carboxamide]	30.4	2.8
C[C@@H]1C(C(=O)N[C@H]2CCCC[C@@H]2O)=NN(c2ccc(Cl)cc2Cl)[C@@H]1c1ccc(Cl)cc1 (mixture of isomers) [Example 128, (+)-cis-5-(4-chlorophenyl)-1-(2,4-dichlorophenyl)-N-((1S,2S)-2-hydroxycyclohexyl)-4-methyl-4,5-dihydro-1H-pyrazole-3-carboxamide]	35.3	18.0
cis-1-(2,4-dichlorophenyl)-5-(4-hydroxyphenyl)-4-methyl-N-(piperidin-1-yl)-4,5-dihydro-1H-pyrazole-3-carboxamide [Example 343]	−10.1	−15.8
COc1ccc([C@H]2[C@@H](C)C(C(=O)O)=NN2c2ccc(Cl)cc2Cl)cc1 (racemic) [Example 261, cis-1-(2,4-dichlorophenyl)-5-(4-methoxyphenyl)-4-methyl-4,5-dihydro-1H-pyrazole-3-carboxylic acid]	−6.9	−5
C[C@@H]1C(C(=O)NN2CCCCC2)=NN(c2ccc(Cl)cc2Cl)[C@@H]1c1ccc(F)cc1.Cl (relative stereo) [Example 417, cis-1-(2,4-dichlorophenyl)-5-(4-fluorophenyl)-4-methyl-N-(piperidin-1-yl)-4,5-dihydro-1H-pyrazole-3-carboxamide hydrochloride]	38.5	14.8
